In patent US7435820B2, “Substituted tetrahydro-1H-pyrazolo [3,4-c]pyridines compositions comprising them, and use” (Aventis Pharma S.A., priority 2003, dated 2008):
Like-named read-outs stand apart in the source and are kept apart here.

What was measured:
human KDR enzyme = biological target: T1, human KDR enzyme (Homo sapiens, UniProt P35968); experiment: KDR kinase inhibition: phosphorylation of PLCγ SH2-SH3 substrate by KDR enzyme, 33P-ATP scintillation plate; assay type: biochemical
T1 construct: The cytoplasmic domain of the human KDR enzyme was cloned in GST fusion form; GST; made in house; host or cells: SF21 insect cells (baculovirus, pFastBac)
Procedure: The inhibitory effect of the compounds is determined in an assay for phosphorylation of substrate by the KDR enzyme in vitro using a scintillation technique (96-well plate, NEN).
The cytoplasmic domain of the human KDR enzyme was cloned in GST fusion form into the baculovirus expression vector pFastBac. The protein was expressed in SF21 cells and purified to approximately 60% homogeneity. The KDR kinase activity is measured in 20 mM MOPS, 10 mM MgCl2, 10 mM MnCl2, 1 mM DTT, 2.5 mM EGTA, 10 mM b-glycerophosphate, pH=7.2, in the presence of 10 mM MgCl2, 100 μM Na3VO4 and 1 mM NaF. 10 μl of the compound are added to 70 μl of kinase buffer containing 100 ng of KDR enzyme at 4° C. The reaction is initiated by adding 20 μl of solution containing 2 μg of substrate (SH2-SH3 fragment of PLCγ expressed in the form of an GST fusion protein), 2 μCi γ ^33P[ATP] and 2 μM cold ATP. After incubation for 1 hour at 37° C., the reaction is stopped by adding 1 volume (100 μl) of 200 mM EDTA. The incubation buffer is removed and the wells are washed three times with 300 μl of PBS. The radioactivity is measured in each well using a Top Count NXT (Packard) radioactivity counter.
The background noise is determined by measuring the radioactivity in four different wells containing the radioactive ATP and the substrate alone.
A total activity control is measured in four different wells containing all the reagents (γ^33P-[ATP], KDR and PLC-γ substrate) but in the absence of compound.
The inhibition of the KDR activity with the compound of the invention is expressed as percentage inhibition of the control activity determined in the absence of compound.
The compound SU5614 (Calbiochem) (1 μM) is included in each plate as inhibition control.

human Tie2 = biological target: T2, human Tie2 (Homo sapiens, UniProt Q02763); experiment: Tie2 kinase inhibition: phosphorylation of GST-PLC (SH2-SH3 fragments) by GST-Tie2, 33P-ATP flashplate; assay type: biochemical
T2 construct: human Tie2 corresponding to amino acids 776-1124 of the intracellular domain was generated by PCR; made in house; host or cells: baculovirus expression system (vector pFastBacGT)
Procedure: The coding sequence of human Tie2 corresponding to amino acids 776-1124 of the intracellular domain was generated by PCR using the cDNA isolated from human placenta as model. This sequence was introduced into a baculovirus expression vector pFastBacGT in the form of a GST fusion protein.
The inhibitory effect of the molecules is determined in an assay for phosphorylation of PLC by Tie2 in the presence of GST-Tie2 purified to approximately 80% homogeneity. The substrate is made up of the SH2-SH3 fragments of PLC, the latter being expressed in the form of a GST fusion protein.
The kinase activity of Tie2 is measured in a 20 mM MOPS buffer, pH 7.2, containing 10 mM MgCl2, 10 mM MnCl2, 1 mM DTT and 10 mM of glycerophosphate. A reaction mixture made up of 70 μl of kinase buffer containing 100 ng of GST-Tie2 enzyme per well is placed in a flashplate 96-well plate kept on ice. 10 μl of the molecule to be tested, diluted in DMSO, at a concentration of at most 10% are then added. For a given concentration, each measurement is carried out in quadruplicate. The reaction is initiated by adding 20 μl of solution containing 2 μg of GST-PLC, 2 μM of cold ATP and 1 μCi of ^33P[ATP]. After incubation for 1 hour at 37° C., the reaction is stopped by adding 1 volume (100 μl) of 200 mM EDTA. After removal of the incubation buffer, the wells are washed three times with 300 μl of PBS. The radioactivity is measured on a Wallac MicroBeta 1450.
The inhibition of the Tie2 activity is calculated and expressed as percentage inhibition with respect to the control activity determined in the absence of compound.

[1] = Assay 1, read-out: KDR % Inhib at 10 μM Assay 1
[2] = Assay 2, read-out: KDR % Inhib at 10 μM Assay 2
[3] = Assay 1, read-out: Tie2 % Inhib at 10 μM (FRX) Assay 1
[4] = Assay 2, read-out: Tie2 % Inhib at 10 μM (FRX) Assay 2

T1 sequence (P35968 786-1356 limits assumed): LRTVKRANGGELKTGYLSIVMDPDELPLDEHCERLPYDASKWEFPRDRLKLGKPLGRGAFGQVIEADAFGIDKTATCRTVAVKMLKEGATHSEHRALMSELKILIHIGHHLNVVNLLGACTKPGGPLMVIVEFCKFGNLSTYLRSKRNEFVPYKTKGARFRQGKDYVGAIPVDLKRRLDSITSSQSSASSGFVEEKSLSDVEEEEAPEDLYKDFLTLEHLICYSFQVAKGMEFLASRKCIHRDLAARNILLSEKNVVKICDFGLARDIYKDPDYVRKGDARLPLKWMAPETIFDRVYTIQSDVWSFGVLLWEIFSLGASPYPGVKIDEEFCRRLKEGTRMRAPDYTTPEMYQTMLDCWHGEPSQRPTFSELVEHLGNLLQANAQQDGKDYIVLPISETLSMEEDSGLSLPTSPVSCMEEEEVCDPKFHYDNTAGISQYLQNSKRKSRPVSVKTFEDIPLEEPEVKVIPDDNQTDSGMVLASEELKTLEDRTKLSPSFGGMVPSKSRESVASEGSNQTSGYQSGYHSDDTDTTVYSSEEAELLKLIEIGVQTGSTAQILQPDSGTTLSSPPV
T2 sequence (Q02763 776-1124): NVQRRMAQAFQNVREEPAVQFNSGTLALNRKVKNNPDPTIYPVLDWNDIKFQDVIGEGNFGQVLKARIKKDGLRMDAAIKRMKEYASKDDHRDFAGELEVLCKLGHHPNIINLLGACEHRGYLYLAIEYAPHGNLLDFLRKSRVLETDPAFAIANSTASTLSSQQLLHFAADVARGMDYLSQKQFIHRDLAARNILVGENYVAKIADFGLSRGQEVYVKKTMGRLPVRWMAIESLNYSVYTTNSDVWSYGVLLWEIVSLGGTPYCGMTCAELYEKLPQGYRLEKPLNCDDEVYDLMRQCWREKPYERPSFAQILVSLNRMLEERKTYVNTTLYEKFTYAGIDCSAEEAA

inhibition at 10 µM (human KDR enzyme; read-out: KDR % Inhib. 10 μM) [%]	inhibition at 10 µM (human Tie2; read-out: Tie2 % Inhib. 10 μM) [%]	other results	Structure (SMILES)
1.65	47.6		CCCCN1CCc2c(n[nH]c2-c2nc3cc(C)c(C)cc3[nH]2)C1 [Chemistry 20]
22.9	65.4		Cc1cc2nc(-c3[nH]nc4c3CCN(S(=O)(=O)CC(F)(F)F)C4)[nH]c2cc1C [Chemistry 27]
74.5	92.7		Cc1cc2nc(-c3[nH]nc4c3CCN(C(=O)c3ccco3)C4)[nH]c2cc1C [Chemistry 53]
79.5	83.9		Cc1cc2nc(-c3[nH]nc4c3CCN(Cc3cccc(Cl)c3Cl)C4)[nH]c2cc1C [Chemistry 10]
17.9	68.1		Cc1cc2nc(-c3[nH]nc4c3CCN(CCCc3ccccc3)C4)[nH]c2cc1C [Chemistry 19]
27.8	89.1		Cc1cc2nc(-c3[nH]nc4c3CCN(S(=O)(=O)c3ccc(Cl)cc3)C4)[nH]c2cc1C [Chemistry 26]
15.4	56.7		Cc1cc2nc(-c3[nH]nc4c3CCN(CCc3ccccc3)C4)[nH]c2cc1C [Chemistry 9]
12.7	3.75		Cc1cc2nc(-c3[nH]nc4c3CCN(C(=O)Nc3ccccc3Cl)C4)[nH]c2cc1C [Chemistry 61]
14.4	83.4		Cc1cc2nc(-c3[nH]nc4c3CCN(C(=O)C(C)C)C4)[nH]c2cc1C [Chemistry 40]
18.1	84.7		COc1ccc(S(=O)(=O)N2CCc3c(n[nH]c3-c3nc4cc(C)c(C)cc4[nH]3)C2)cc1 [Chemistry 34]
46.6	92.5		CCCCC(=O)N1CCc2c(n[nH]c2-c2nc3cc(C)c(C)cc3[nH]2)C1 [Chemistry 56]
		inhibition at 10 µM (human KDR enzyme; [1]): 19.5%; inhibition at 10 µM (human KDR enzyme; [2]): 13%; inhibition at 10 µM (human Tie2; [3]): 69.7%; inhibition at 10 µM (human Tie2; [4]): 73.8%	Cc1cc2c(cc1C)NC(c1[nH]nc3c1CCN(C(=O)c1ccc(C)c([N+](=O)[O-])c1)C3)N2 [Example P-31378-112-14]
-5.75	36.4		CCN1CCc2c(n[nH]c2-c2nc3cc(C)c(C)cc3[nH]2)C1 [Chemistry 16]
		inhibition at 10 µM (human KDR enzyme; [1]): 75.5%; inhibition at 10 µM (human KDR enzyme; [2]): 77.4%; inhibition at 10 µM (human Tie2; [3]): 80.1%; inhibition at 10 µM (human Tie2; [4]): 83.8%	Cc1cc2nc(-c3[nH]nc4c3CCN(C(=O)c3ccccc3NC(=O)c3ccc(Cl)cc3)C4)[nH]c2cc1C [Example P-31378-112-15]
72.5	86.3		Cc1cc2nc(-c3[nH]nc4c3CCN(C(=O)c3ccccc3)C4)[nH]c2cc1C [Chemistry 41]
69	60.3		Cc1cc2nc(-c3[nH]nc4c3CCN(Cc3ccc(Cl)cc3)C4)[nH]c2cc1C [Chemistry 12]
12.2	48.6		Cc1cc2nc(-c3[nH]nc4c3CCN(C)C4)[nH]c2cc1C [Chemistry 7]
12.8	21		Cc1cc2nc(-c3[nH]nc4c3CCN(C(=O)Nc3cccc(Cl)c3)C4)[nH]c2cc1C [Chemistry 62]
31.9	89.1		Cc1cc2nc(-c3[nH]nc4c3CCN(S(=O)(=O)c3cccc(Cl)c3Cl)C4)[nH]c2cc1C [Chemistry 25]
19.5	19.1		Cc1cc2nc(-c3[nH]nc4c3CCN(C(=O)Nc3ccccc3C)C4)[nH]c2cc1C [Chemistry 68]
92.1	65.5		Clc1cccc(CN2CCc3c(n[nH]c3-c3nc4ccccc4[nH]3)C2)c1 [Chemistry 70]

inhibition at 10 µM (human KDR enzyme; read-out: KDR % Inhib. 10 μM) [%]	inhibition at 10 µM (human Tie2; read-out: Tie2 % Inhib. 10 μM) [%]	other results	Structure (SMILES)
74.8	82.4		Cc1cc2nc(-c3[nH]nc4c3CCN(C(=O)CCc3ccccc3)C4)[nH]c2cc1C [Chemistry 50]
		inhibition at 10 µM (human KDR enzyme; [1]): 68.6%; inhibition at 10 µM (human KDR enzyme; [2]): 64.3%; inhibition at 10 µM (human Tie2; [3]): 92.7%; inhibition at 10 µM (human Tie2; [4]): 92%	Cc1cc2nc(-c3[nH]nc4c3CCN(C(=O)c3ccccc3CCc3ccccc3)C4)[nH]c2cc1C [Example P-31378-112-7]
		inhibition at 10 µM (human KDR enzyme; [1]): 71.4%; inhibition at 10 µM (human KDR enzyme; [2]): 68%; inhibition at 10 µM (human Tie2; [3]): 92.7%; inhibition at 10 µM (human Tie2; [4]): 93.8%	Cc1cc2nc(-c3[nH]nc4c3CCN(C(=O)c3ccccc3Cc3ccccc3)C4)[nH]c2cc1C [Example P-31378-112-6]
30.9	97.9		COc1ccccc1S(=O)(=O)N1CCc2c(-c3nc4cc(C)c(C)cc4[nH]3)n[nH]c2C1 [Chemistry 39]
57.7	95.9		Cc1cc2nc(-c3[nH]nc4c3CCN(S(=O)(=O)Cc3ccc(F)cc3)C4)[nH]c2cc1C [Chemistry 33]
	99		COc1ccc(S(=O)(=O)Nc2ccc(N3CCc4c(n[nH]c4-c4nc5cc(C)c(C)cc5[nH]4)C3)nc2)cc1
46.5	91.5		Cc1cc2nc(-c3[nH]nc4c3CCN(S(=O)(=O)c3cccc(Cl)c3)C4)[nH]c2cc1C [Chemistry 32]
-3.7	55		CCCN1CCc2c(n[nH]c2-c2nc3cc(C)c(C)cc3[nH]2)C1 [Chemistry 18]
2.1	41.2		Cc1cc2nc(-c3[nH]nc4c3CCN(CC(C)C)C4)[nH]c2cc1C [Chemistry 6]
77.2			Cc1cc2nc(-c3[nH]nc4c3CCN(C(=O)NCCc3ccccc3)C4)[nH]c2cc1C [Chemistry 2]
11.2	81.3		Cc1cc2nc(-c3[nH]nc4c3CCN(C(=O)C(C)(C)C)C4)[nH]c2cc1C [Chemistry 54]
85.5	64.3		Cc1cc2nc(-c3[nH]nc4c3CCN(Cc3ccccc3)C4)[nH]c2cc1C [Chemistry 8]
3.65	24.9		Cc1cc2nc(-c3[nH]nc4c3CCNC4)[nH]c2cc1C [Chemistry 22]
		KDR % Inhib at 10 μM Assay 1 (human KDR enzyme; Assay 1): 59.0%; KDR % Inhib at 10 μM Assay 2 (human KDR enzyme; Assay 2): 56.5%; Tie2 % Inhib at 10 μM (FRX) Assay 1 (human Tie2; Assay 1, 10 µM): 78.7%; Tie2 % Inhib at 10 μM (FRX) Assay 2 (human Tie2; Assay 2, 10 µM): 79.1%	Cc1cc2nc(-c3[nH]nc4c3CCN(C(=O)c3ccccc3Nc3cccc(C(F)(F)F)c3)C4)[nH]c2cc1C [Example P-31378-112-3]
84.5	41.5		Cc1cc2nc(-c3[nH]nc4c3CCN(Cc3cccs3)C4)[nH]c2cc1C [Chemistry 13]
	98		COc1cc(C)ccc1S(=O)(=O)Nc1ccc(N2CCc3c(n[nH]c3-c3nc4cc(C)c(C)cc4[nH]3)C2)nc1
78.1			Cc1cc2nc(-c3[nH]nc4c3CCN(S(C)(=O)=O)C4)[nH]c2cc1C [Chemistry 3]
88.8			Cc1cc2nc(-c3[nH]nc4c3CCN(Cc3cccc(Cl)c3)C4)[nH]c2cc1C [Chemistry 5]
	100		Cc1cc2nc(-c3[nH]nc4c3CCN(c3ccc(NS(=O)(=O)c5ccccc5Cl)cn3)C4)[nH]c2cc1C
25.4			Cc1cc2nc(-c3[nH]nc4c3CCN(C(=O)c3cccnc3)C4)[nH]c2cc1C [Chemistry 4]
	100		Cc1cc2nc(-c3[nH]nc4c3CCN(c3ccc(NS(=O)(=O)c5cccs5)cn3)C4)[nH]c2cc1C
